Experimental data: patent US4466980A, “Thiaprostaglandin E1 derivatives, process for production thereof, and pharmaceutical use thereof” (Teijin Limited, priority 1980, dated 1984)

How the values were obtained:
[1] = system: blood pressure and heart beat rate of rats; assay: hypotensive activity and heart beat rate, intravenous injection in anesthetized rats; format: in vivo, male wister rats; details: Rattus norvegicus, i.v.
Method: (1) The actions of the thiaprostaglandin E1 derivatives of the invention on the blood pressure and heart beat rate of rats were examined by intravenous injection under anesthesia. Male wister rats weighing about 250 g were used. Urethane (500 mg/kg) and α-chloralose (100 mg/kg) were intraperitoneally administered to the rats. The rats were anesthetized and fixed in place. Each of the test compounds was dissolved in a small amount of ethanol and diluted with physiological saline to adjust the final ethanol concentration to not more than 5%. The solution was intravenously injected into the rats through a catheter inserted into the femoral vein. The blood pressure of the rats was measured by a pressure transducer through a catheter inserted into the carotid artery of the rats. The heart beat rate was determined from the blood pressure pulse. The action of the test compound of the blood pressure was expressed as the dosage (p-ED20, μg/kg) of the test compound which caused a 20% lowering of the mean blood pressure before administration of the compound. The action of the test compound on the heart rate was expressed as the dosage (H-ED10, μg/kg) of the test compound which caused a 10% increase of the heart rate from the heart beat rate before administration of the test compound.

[2] = system: blood pressure of conscious rats; assay: action on blood pressure of conscious rats, oral; format: in vivo, male wister rats
Method: (2) The thiaprostaglandin E1 derivatives of the invention were orally administered to conscious rats, and their action on the blood pressure was examined.
Male wister rats weighing about 250 g were used as experimental animals. These rat had been fasted for 16 hours before the start of the experiment. A catheter was inserted into the femoral artery of the rats under ether anesthesia, and then the rats were restrained within a Bollman cage. After more than 1 hour from awakening, each of the test compounds was orally administered.
The test compound was dissolved in a small amount of ethanol, and then diluted with water to adjust the final concentration of ethanol to not more than 5%. The mean blood pressure was measured by means of a pressure transducer through the catheter inserted into the femoral artery.

[3] = system: blood pressure of DOCA hypertensive rats; assay: action on blood pressure of conscious DOCA hypertensive rats, oral; format: in vivo, male wistar rats
Method: (3) The compound (No. 138) of the invention was orally adminstered to DOCA hypertensive rats (induced by deoxycholticosteron acetate) in conscious, and its action on the blood pressure was examined.
Male wistar rats weighing about 160 g were rendered hypertensive. Specifically, one kidney was removed from the rats, and DOCA was subcutaneously administered to the rats in a dose of 10 mg/kg twice a week. While the rats were allowed to drink a 1% aqueous solution of sodium chloride, they were kept for more than 4 weeks to induce hypertension. The average blood pressure was measured in the same way as described in (2) above.

platelet aggregation = assay: extra vivo inhibitory activity of platelet aggregation after oral administration; format: in vivo, guinea pigs (Hartley strain); details: Cavia porcellus; for inhibition at 3 mg/kg: 3 mg/kg p.o.; for inhibition at 10 mg/kg: 10 mg/kg p.o.
Method: The extra vivo platelet aggregation inhibitory activity of the 7-thiaprostaglandin E1 derivatives of the invention were measured by using guinea pigs. A test drug prepared as a 30% ethanol solution of each of the compounds of the invention in ethanol diluted with physiological saline and as a control 30% ethanol solution were orally adminstered in a dose of 1 ml/kg to Hartleystrain guinea pigs having a body weight of 350 to 450 g which had been fasted for 17 hours. 1 hour or 4 hours after the administration of the compound, blood was drawn off by the cardiac puncture using trisodium citrate so that the ratio of the blood to 3.8% trisodium citrate was 9:1. The blood was centrifuged at a speed of 700 rpm for 10 minutes. The upper layer was separated as plateletrich plasma (PRP). The lower layer was further centrifuged at a speed of 2800 rpm for 10 minutes. The upper layer was separated as platelet poor plasma (PPP). 250 microliters of the resulting PRP was taken into an aggregometer cuvette, and incubated at 37° C. for 2 minutes. Then, 25 microliters of a […] ADP disodium solution adjusted by dissolving with 0.1M tris-HCl buffer (ph 8.0) was added. The aggregation curve was recorded for 3 minutes. The maximum degree of aggregation of platelets within this time period was read, and the rate of inhibitor of platelet aggregation was calculated from the following equation. [formula] TC : the transmittance of a control group (to which only the 30% ethanol solution was administered),
TD : the transmittance of a drug administered group.

## COC(=O)CCCCCS[C@H]1C(=O)C[C@@H](O)[C@@H]1/C=C/[C@@H](O)C1CCCCC1 [Compound 138, 16,17,18,19,20-pentanor-15-cyclohexyl-7-thiaprostaglandin E1 methyl ester]
[1]; read-out: H-ED10 (dosage causing a 10% increase of the heart rate)
  ED (10% increase of heart rate): > 10 µg/kg
[1]; read-out: P-ED20 (dosage causing a 20% lowering of the mean blood pressure)
  ED (20% lowering of blood pressure): 0.68 µg/kg
[2]; 1 mg/kg p.o., 0 min, in mmHg
  mean blood pressure: 116 + 4
[2]; 1 mg/kg p.o., 10 min
  mean blood pressure: 99 ± 6
[2]; 1 mg/kg p.o., 15 min
  mean blood pressure: 114 ± 2
[2]; 1 mg/kg p.o., 30 min
  mean blood pressure: 116 ± 4
[2]; 1 mg/kg p.o., 45 min
  mean blood pressure: 119 ± 4
[2]; 1 mg/kg p.o., 60 min
  mean blood pressure: 120 ± 4
[2]; 1 mg/kg p.o., 90 min
  mean blood pressure: 118 ± 3
[2]; 1 mg/kg p.o., 120 min
  mean blood pressure: 118 ± 3
[2]; 10 mg/kg p.o., 0 min
  mean blood pressure: 118 ± 3
[2]; 10 mg/kg p.o., 10 min
  mean blood pressure: 92 ± 9
[2]; 10 mg/kg p.o., 15 min
  mean blood pressure: 95 ± 9
[2]; 10 mg/kg p.o., 30 min
  mean blood pressure: 108 ± 6
[2]; 10 mg/kg p.o., 45 min
  mean blood pressure: 111 ± 4
[2]; 10 mg/kg p.o., 60 min
  mean blood pressure: 112 ± 3
[2]; 10 mg/kg p.o., 90 min
  mean blood pressure: 114 ± 4
[2]; 10 mg/kg p.o., 120 min
  mean blood pressure: 117 ± 4
[2]; p.o., especially 10 mg/kg
  hypotensive action (in words): long-lasting hypotensive action
[3]; 0.1 mg/kg p.o., 0 min
  average blood pressure: 167 ± 8
[3]; 0.1 mg/kg p.o., 10 min
  average blood pressure: 149 ± 12
[3]; 0.1 mg/kg p.o., 15 min
  average blood pressure: 156 ± 8
[3]; 0.1 mg/kg p.o., 30 min
  average blood pressure: 165 ± 7
[3]; 0.1 mg/kg p.o., 45 min
  average blood pressure: 168 ± 7
[3]; 0.1 mg/kg p.o., 60 min
  average blood pressure: 171 ± 10
[3]; 0.1 mg/kg p.o., 90 min
  average blood pressure: 177 ± 11
[3]; 0.1 mg/kg p.o., 120 min
  average blood pressure: 182 ± 13
[3]; 0.3 mg/kg p.o., 0 min
  average blood pressure: 165 ± 14
[3]; 0.3 mg/kg p.o., 10 min
  average blood pressure: 134 ± 12
[3]; 0.3 mg/kg p.o., 15 min
  average blood pressure: 141 ± 8
[3]; 0.3 mg/kg p.o., 30 min
  average blood pressure: 151 ± 7
[3]; 0.3 mg/kg p.o., 45 min
  average blood pressure: 161 ± 9
[3]; 0.3 mg/kg p.o., 60 min
  average blood pressure: 169 ± 9
[3]; 0.3 mg/kg p.o., 90 min
  average blood pressure: 170 ± 12
[3]; 0.3 mg/kg p.o., 120 min
  average blood pressure: 180 ± 10
[3]; p.o., hypertensive rats
  hypotensive action (in words): marked hypotensive action
Platelet aggregation; 1 hr
  inhibition at 3 mg/kg: 64.9%
  inhibition at 10 mg/kg: 94.1%
Platelet aggregation; 4 hr
  inhibition at 3 mg/kg: 23.3%
  inhibition at 10 mg/kg: 50%
